Measurements as given in patent EP4752152A1, “STEROID COMPOUND, AND PREPARATION METHOD THEREFOR AND USE THEREOF” (Cholesgen (Shanghai) Co.Ltd., priority 2023, dated 2025).

Tested on: SREBP pathway
Test: SREBP luciferase reporter gene system (SRE-luciferase assay)
Format: cell-based, human
Conditions: Huh-7/SRE-luc cells, sterol-deficient medium, 0.01-10 µM
Procedure, shortened: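 Readout was SRE-driven luciferase normalised to GFP fluorescence in lysates of stably transfected Huh-7/SRE-luc hepatoma cells. Compounds (0.01, 0.03, 0.1, 0.3, 1.0, 3.0, 10 µM; DMSO control) were applied for 16 h in sterol-depleted medium with 2 µM lovastatin and 10 µM mevalonate; IC50 from variable-slope fit.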

SMILES	IC50 (Homo sapiens, Huh-7, 16 h) [µM]	IC50 (16 hours) [µM]
C[C@H](CCCC(O)c1ccccc1OC(F)(F)F)[C@H]1CC[C@H]2C3=C(F)C[C@H]4[C@@H](O)[C@@H](O)CC[C@]4(C)[C@H]3CC[C@]12C (stereo partly drawn) [Compound 2, (1R,3aR,5aR,6R,7S,9aR,9bR,11aR)-4-fluoro-1-[(2R)-6-hydroxy-6-{2-[(trifluoromethyl)oxy]phenyl}hexan-2-yl]-9a,11a-dimethyl-2,3,3a,5,5a,6,7,8,9,9a,9b,10,11,11a-tetradecahydro-1H-cyclopenta[1,2-a]phenanthrene-6,7-diol]	0.45	–
C[C@H](CCCC(O)c1ccccc1F)[C@H]1CC[C@H]2C3=C(F)C[C@H]4[C@@H](O)[C@@H](O)CC[C@]4(C)[C@H]3CC[C@]12C (stereo partly drawn) [Compound 4, (1R,3aR,5aR,6R,7S,9aR,9bR,11aR)-4-fluoro-1-[(2R)-6-(2-fluorophenyl)-6-hydroxyhexan-2-yl]-9a,11a-dimethyl-2,3,3a,5,5a,6,7,8,9,9a,9b,10,11,11a-tetradecahydro-1H-cyclopenta[1,2-a]phenanthrene-6,7-diol]	0.09	–
COc1cccc(C(O)CCC[C@@H](C)[C@H]2CC[C@H]3[C@@H]4CC[C@H]5[C@@H](O)[C@@H](O)CC[C@]5(C)[C@H]4CC[C@]23C)c1 (stereo partly drawn) [Compound 5, 24-[hydroxy(3-methoxyphenyl)methyl]-5α-cholane-3β,4β-diol]	0.13	–
C[C@H](CCN(C)C(=O)c1ccccc1F)[C@H]1CC[C@H]2[C@@H]3CC[C@@]4(C)[C@@H](O)[C@@H](O)CC[C@]4(C)[C@H]3CC[C@]12C [Compound 15A, 2-fluoro-N-[(3R)-3-[(1R,3aS,3bS,5aR,6R,7S,9aR,9bS,11aR)-6,7-dihydroxy-5a,9a,11a-trimethylhexadecahydro-1H-cyclopenta[1,2-a]phenanthren-1-yl]butyl]-N-methylbenzamide]	0.37	–
C[C@H](CCN(C)C(=O)c1ccccc1F)[C@H]1CC[C@H]2[C@@H]3CC[C@@]4(C)[C@@H](O)[C@@H](O)CC[C@]4(C)[C@H]3CC[C@]12C [Compound 15B, 2-fluoro-N-[(3R)-3-[(1R,3aS,3bS,5aR,6R,7S,9aR,9bS,11aR)-6,7-dihydroxy-5a,9a,11a-trimethylhexadecahydro-1H-cyclopenta[1,2-a]phenanthren-1-yl]butyl]-N-methylbenzamide]	–	0.32
COc1ccccc1C(CCC[C@@H](C)[C@H]1CC[C@H]2[C@@H]3CC[C@H]4[C@@H](O)[C@@H](O)CC[C@]4(C)[C@H]3CC[C@]12C)OC (stereo partly drawn) [Compound 22, 24-[methoxy(2-methoxyphenyl)methyl]-5α-cholane-3β,4β-diol]	2.01	–
COc1cccc(C(O)CCC[C@@H](C)[C@H]2CC[C@H]3C4=C(F)C[C@H]5[C@@H](O)[C@@H](O)CC[C@]5(C)[C@H]4CC[C@]23C)c1 (stereo partly drawn) [Compound 40, (1R,3aR,5aR,6R,7S,9aR,9bR,11aR)-4-fluoro-1-[(2R)-6-hydroxy-6-(3-methoxyphenyl)hexan-2-yl]-9a,11a-dimethyl-2,3,3a,5,5a,6,7,8,9,9a,9b,10,11,11a-tetradecahydro-1H-cyclopenta[1,2-a]phenanthrene-6,7-diol]	0.25	–
C[C@H](CCCC(O)c1cccc(F)c1)[C@H]1CC[C@H]2C3=C(F)C[C@H]4[C@@H](O)[C@@H](O)CC[C@]4(C)[C@H]3CC[C@]12C (stereo partly drawn) [Compound 45, (1R,3aR,5aR,6R,7S,9aR,9bR,11aR)-4-fluoro-1-[(2R)-6-(3-fluorophenyl)-6-hydroxyhexan-2-yl]-9a,11a-dimethyl-2,3,3a,5,5a,6,7,8,9,9a,9b,10,11,11a-tetradecahydro-1H-cyclopenta[1,2-a]phenanthrene-6,7-diol]	0.198	–
C[C@H](CCC(=O)N(C)c1ccccc1F)[C@H]1CC[C@H]2[C@@H]3CC[C@H]4[C@@H](O)[C@@H](O)CC[C@]4(C)[C@H]3CC[C@]12C [Compound 47, (3S,4R,5R,8S,9S,10R,13R,14S,17R,20R)-N-(2-fluorophenyl)-3,4-dihydroxy-N-methyl-5α-cholan-24-amide]	0.05	–
COc1c(F)cccc1C(O)CCC[C@@H](C)[C@H]1CC[C@H]2C3=C(F)C[C@H]4[C@@H](O)[C@@H](O)CC[C@]4(C)[C@H]3CC[C@]12C (stereo partly drawn) [Compound 48, (1R,3aR,5aR,6R,7S,9aR,9bR,11aR)-4-fluoro-1-[(2R)-6-(3-fluoro-2-methoxyphenyl)-6-hydroxyhexan-2-yl]-9a,11a-dimethyl-2,3,3a,5,5a,6,7,8,9,9a,9b,10,11,11a-tetradecahydro-1H-cyclopenta[1,2-a]phenanthrene-6,7-diol]	0.203	–
COc1ccc(C(O)CCC[C@@H](C)[C@H]2CC[C@H]3C4=C(F)C[C@H]5[C@@H](O)[C@@H](O)CC[C@]5(C)[C@H]4CC[C@]23C)cc1 (stereo partly drawn) [Compound 51, (1R,3aR,5aR,6R,7S,9aR,9bR,11aR)-4-fluoro-1-[(2R)-6-hydroxy-6-(4-methoxyphenyl)hexan-2-yl]-9a,11a-dimethyl-2,3,3a,5,5a,6,7,8,9,9a,9b,10,11,11a-tetradecahydro-1H-cyclopenta[1,2-a]phenanthrene-6,7-diol]	0.212	–
C[C@H](CCCC(O)c1ccc(OC(F)(F)F)cc1F)[C@H]1CC[C@H]2[C@H]3[C@H](CC[C@]12C)[C@@]1(C)CC[C@H](O)[C@H](O)[C@@H]1CC3(F)F (stereo partly drawn) [Compound 62, (1R,3aS,3bS,5aR,6R,7S,9aR,9bS,11aR)-4,4-difluoro-1-[(2R)-6-{2-fluoro-4-[(trifluoromethyl)oxy]phenyl}-6-hydroxyhexan-2-yl]-9a,11a-dimethylhexadecahydro-1H-cyclopenta[1,2-a]phenanthrene-6,7-diol]	0.728	–
COc1ccccc1C(O)CCC[C@@H](C)[C@H]1CC[C@H]2C3=C(F)C[C@H]4C[C@@H](O)CC[C@]4(C)[C@H]3CC[C@]12C (stereo partly drawn) [Compound 73, (1R,3aR,5aR,7S,9aS,9bR,11aR)-4-fluoro-1-[(2R)-6-hydroxy-6-(2-methoxyphenyl)hexan-2-yl]-9a,11a-dimethyl-2,3,3a,5,5a,6,7,8,9,9a,9b,10,11,11a-tetradecahydro-1H-cyclopenta[1,2-a]phenanthren-7-ol]	0.55	–
C[C@H](CCCC(O)c1ccccc1F)[C@H]1CC[C@H]2[C@H]3[C@H](CC[C@]12C)[C@@]1(C)CC[C@H](O)CC1CC3(F)F (stereo partly drawn) [Compound 74, (1R,3aS,3bR,7S,9aS,9bS,11aR)-4,4-difluoro-1-[(2R)-6-(2-fluorophenyl)-6-hydroxyhexan-2-yl]-9a,11a-dimethylhexadecahydro-1H-cyclopenta[1,2-a]phenanthren-7-ol]	0.68	–
C[C@H](CCCC(O)c1ccncc1)[C@H]1CC[C@H]2[C@H]3[C@H](CC[C@]12C)[C@@]1(C)CC[C@H](O)[C@H](O)[C@@H]1CC3(F)F (stereo partly drawn) [Compound 76, (1R,3aS,3bS,5aR,6R,7S,9aR,9bS,11aR)-4,4-difluoro-1-[(2R)-6-hydroxy-6-(pyridin-4-yl)hexan-2-yl]-9a,11a-dimethylhexadecahydro-1H-cyclopenta[1,2-a]phenanthrene-6,7-diol]	0.9	–
C[C@H](CCCC(O)c1cccnc1F)[C@H]1CC[C@H]2[C@H]3[C@H](CC[C@]12C)[C@@]1(C)CC[C@H](O)[C@H](O)[C@@H]1CC3(F)F (stereo partly drawn) [Compound 80, (1R,3aS,3bS,5aR,6R,7S,9aR,9bS,11aR)-4,4-difluoro-1-[(2R)-6-(2-fluoropyridin-3-yl)-6-hydroxyhexan-2-yl]-9a,11a-dimethylhexadecahydro-1H-cyclopenta[1,2-a]phenanthrene-6,7-diol]	0.514	–
